For the assay, the system named is LPS-activated tissue-factor (TF) activity in human monocytes. In words: Pro-coagulant activity of tissue factor (one-stage clotting time) in LPS-stimulated human monocytes. Type of assay: cell-based. As to the method:
FIG. 2—The glycerophosphoinositols inhibit LPS-activated tissue-factor activity in human monocytes. Human monocytes were purified from peripheral blood of healthy donors and incubated at 37° C. for 20 min without or with different concentrations (from 50 μM to 300 μM) GroPIns or GroPIns4P, and for a further 5 h and 24 h in the absence and in presence of 0.1 μg/ml LPS from E. coli. […] Data are means (±SD) of three independent experiments performed with cells from different donors. Asterisks indicate statistically significant differences (*p=0.015; **p<0.005; ***p=0.0003) versus their respective controls. As shown, pro-coagulant activity was not detectable in untreated monocytes, and it was induced in a time-dependent manner by LPS stimulation.
The glycerophosphoinositol, differently from the PLA2IVα inhibitor, inhibits LPS-activated tissue-factor activity in human monocytes. Human monocytes were purified from peripheral blood of two healthy donors (experiment I and II) and pre-incubated at 37° C. for 20 min without (black line) or with 300 μM glycerophosphoinositol (GroPIns, blue line) or 0.5 μM PLA2IVα inhibitor (pyrrophenone, Pf, red line), and for a further 24 h in the absence or presence of increasing concentrations of LPS from E. coli (endotoxin).
The glycerophosphoinositol inhibits in a dose-dependent manner LPS-activated tissue-factor activity in human monocytes. Human monocytes were purified from peripheral blood of three healthy donors (experiments III, IV and V) and pre-incubated at 37° C. for 20 min without or with increasing concentrations of glycerophosphoinositol (GroPIns) and for a further 24 h in the absence or presence of 10 ng/ml of LPS from E. coli (endotoxin). […] The two insets in Exp IV and V show the pro-coagulant activity of tissue factor, assessed in cells stimulated by 10 ng/ml of endotoxin, with (filled bars) or without (dotted bars) 20 min pre-incubation at 37° C., in absence (Control) or in presence of 300 μM GroPIns.
The glycerophosphoinositols inhibit LPS-activated tissue-factor activity in human monocytes.
Human monocytes were obtained from whole blood collected from healthy donors (informed consent was obtained) and anticoagulated with 0.1 vol 3.8% sodium citrate/0.15 mol/l NaCl. The leukocytes were sedimented at 180×g for 15 min at 10° C. The sedimented cells were diluted to the initial volume with citrate-saline and sedimented again. This step was repeated to minimise platelet contamination. The cells were then layered onto Lymphoprep™, and centrifuged at 700×g for 20 min at 20° C. The ring of mononuclear cells was collected and sedimented at 620×g for 7 min at 8° C. The pellet was resuspended in citrate-saline and the cells were washed twice. Monocytes were purified using a discontinuous Percoll™ density gradient; the mononuclear cell preparation was resuspended in RPMI-1640 medium supplemented with 10% heat-inactivated foetal calf serum, and was layered onto a 46% isosmotic Percoll™ solution. After centrifugation at 20° C. for 30 min at 550×g, the cells at the RPMI-1640 medium/Percoll™ interface were collected and sedimented at 620×g. The pellet was resuspended in citrate-saline and the cells were washed twice. The final monocyte preparation was then resuspended in serum-free RPMI-1640 at the concentration required.
The pro-coagulant activity of tissue factor (TF activity) was measured in cell lysates according to one-stage clotting time [as reported in (Evangelista et al., Thromb Haemost. 2005; 94, 568-577)]. One hundred μl of cell lysates were added to 100 μl of 37° C. prewarmed normal human plasma. After 30 s, 100 μl 20 mM CaCl2 were added to the mixture and the clotting time was determined using a KC4A Amellung Coagulometer (Mascia Brunelli, Milan, Italy). The data were then converted in arbitrary units by interpolation with a standard curve generated with serial dilutions of human recombinant thromboplastin (Hemoliance, Instrumentation Laboratory).

[1] abbreviates: 300 μM, endotoxin 10 ng/ml for 24 h (FIG. 12).

Molecules are shown by their SMILES.

In the case of `O=C1NC(=O)/C(=C/c2ccc(C(=O)NC[C@@H]3C[C@@H](SC(c4ccccc4)(c4ccccc4)c4ccccc4)CN3C(=O)c3ccccc3C(=O)c3ccc(F)cc3F)cc2)S1` [pyrrophenone, reference compound], where the note is “0.5 μM, 20 min pre-incubation, increasing concentrations of endotoxin for 24 h (FIG. 10)”, the TF activity entry is “does not significantly inhibit endotoxin effect on tissue-factor activity”.

As to `O=P(O)(O)O[C@@H]1[C@@H](O)[C@@H](O)[C@@H](OP(=O)(O)OCC(O)CO)[C@H](O)[C@H]1OP(=O)(O)O` (stereo partly drawn) [GroPIns4,5P2, glycerophosphoinositol 4,5-bisphosphate], under setting [1], the TF activity entry is reported as “reduce TF activity” and the “efficacy in reducing TF activity compared with GroPIns” value is “higher efficacy than GroPIns”.

The values are drawn from US9351983B2, “Use of glycerophosphoinositols for the treatment of septic shock” (CONSIGLIO NAZIONALE DELLE RICERCHE, priority 2012, dated 2016).
